# Test results as given in patent publication US4826840A, “Cerebral protecting agent” (Taiyo Pharmaceutical Industry Co., Ltd., priority 1987, dated 1989).
# Structures can show the parent of a compound that is named as a salt.
# Tests used:
# [1] = Effect on brain ischemia model by MgCl2; type: in vivo, ddY male mice; details: for Survival Time: 2 h before saturated MgCl2 i.v.; for Prolongation of survival time (in words): doses of about 40 mg/kg, oral
# Experimental: ddY male mice (age: 7 weeks) having been preliminary bred in the same manner as in Example 7 were fasted and orally administered with the test compounds dissolved in 0.3%methylcellulose solution. Two (2) hours later, 0.05 ml of saturated solution of MgCl2 was intravenously administered rapidly through the caudal vein. The […] was determined as the period of time until final gasping.
# Measurement of LD50 = details: mouse, in vivo
# Text: ddY male mice having been preliminary bred in the same manner as Example 7 were orally given the test compounds to determine LD50.
# [2] = Protective effect against KCN death; type: in vivo, ddY male mice
# [3] = system: vertebral artery blood flow; test: Effect on vertebral artery blood flow; type: in vivo, Male adult dogs; details: for Increase in VBF (Δ%): n = 3; for Increase of VBF (in words): i.v., anesthetized dogs
# Experimental: (§1) Male adult dogs (weight: […]) were used for the experiment after they were preliminary bred in the metal cage for 1 week in a breeding room in which the temperature was controlled at 22±2° C. and the humidity was at 55±10%. They were given pelleted diet (CS, product of Oriental Yeast Co.) and water ad lib. Prior to submitting the animals to the experiment, they were fasted for 21-23 hours.
# (§2) The dogs were anesthetized with sodium pentobarbital and probes for measuring the blood flows were fitted on the right vertebral artery and right common carotid artery. After measuring the control blood flows, the test compounds dissolved in physiological saline were intravenously administered. The vertebral artery blood flow (VBF) and the common carotid artery flow (CCBF) were measured to determine the increments of the blood flow resulting from administration of the test compounds.
# [4] = Effect on bicuculline convulsion; type: in vivo, Wister male rats; details: 1 h before bicuculline 1.75 mg/kg i.v.; for Inhibition of the tonic extension (in words): oral
# Experimental: Each test compound was dissolved in 0.5% methylcellulose solution and orally administered to each mouse, and 1 hour later 1.75 mg/kg of bicuculline was given intravenously through caudal vein over the period of 15 seconds. Then, the tonic hindpaw extension was observed.
# [5] = system: common carotid artery blood flow; test: Effect on common carotid artery blood flow; type: in vivo, Male adult dogs; details: for Increase in CCBF (Δ%): n = 3; for Increase of CCBF (in words): i.v., anesthetized dogs
# Experimental: as §1, §2
# [6] = 40 mg/kg p.o., 2 h before KCN 2.1 mg/kg i.v.
smiles,measurement,setting,value
"CCOC(=O)C1=C[C@]2(CC)CCCN3CCc4c(n1c1ccccc41)[C@@H]32 [vinpocetine, reference compound]",Survival Time,[1]; 80 mg/kg oral,22.5 ± 1.1 s
CCCCC1=Cc2cc3c(cc2C1N1CCN(CCCC)CC1)OCO3 (centres unmarked) [Compound 3b],LD50,"Measurement of LD50; oral, ddY male mice",430 mg/kg
same,Rate of Survival (%),[2]; [6],33%
same,Survived Animals/Tested Animals,[2]; [6],3/9
CCCCC1=Cc2cc3c(cc2C1N1CCCN(CCC)CC1)OCO3 (centres unmarked) [Compound 4b],LD50,"Measurement of LD50; oral, ddY male mice",373 mg/kg
same,Rate of Survival (%),[2]; [6],56%
same,Survived Animals/Tested Animals,[2]; [6],5/9
CCCCC1=C(C)c2cc3c(cc2C1N1CCN(CCC)CC1)OCO3 (centres unmarked) [Compound 5b],LD50,"Measurement of LD50; oral, ddY male mice",510 mg/kg
same,Rate of Survival (%),[2]; [6],56%
same,Survived Animals/Tested Animals,[2]; [6],5/9
CCCCC1=Cc2cc3c(cc2C1N1CCN(CCC)CC1)OCO3 (centres unmarked) [Compound 2b],LD50,Measurement of LD50; po,450 mg/kg
same,Survival Time,[1]; 40 mg/kg oral,28.3 ± 1.5 s
same,Survival Time,[1]; 80 mg/kg oral,32.4 ± 1.5 s
same,Prolongation of survival time (in words),[1],significant prolongation of survival time dose-dependency
same,Rate of Survival (%),"[2]; mouse, in vivo",50%
same,Survived Animals/Tested Animals,"[2]; mouse, in vivo",5/10
same,Increase in VBF (Δ%),"[3]; 1 mg/kg i.v., 1 min",7.2 ± 4.9 Δ%
same,Increase in VBF (Δ%),"[3]; 1 mg/kg i.v., 2 min",18.6 ± 7.4 Δ%
same,Increase in VBF (Δ%),"[3]; 1 mg/kg i.v., 3 min",24.6 ± 8.3 Δ%
same,Increase in VBF (Δ%),"[3]; 1 mg/kg i.v., 4 min",17.6 ± 8.8 Δ%
same,Increase in VBF (Δ%),"[3]; 1 mg/kg i.v., 5 min",3.7 ± 3.7 Δ%
same,Increase in VBF (Δ%),"[3]; 3 mg/kg i.v., 1 min",43.1 ± 28.5 Δ%
same,Increase in VBF (Δ%),"[3]; 3 mg/kg i.v., 2 min",74.3 ± 23.3 Δ%
same,Increase in VBF (Δ%),"[3]; 3 mg/kg i.v., 3 min",78.2 ± 28.2 Δ%
same,Increase in VBF (Δ%),"[3]; 3 mg/kg i.v., 4 min",40.5 ± 21.1 Δ%
same,Increase in VBF (Δ%),"[3]; 3 mg/kg i.v., 5 min",18.5 ± 12.7 Δ%
same,Increase of VBF (in words),[3],increased VBF and CCBF dose-dependently
same,Animals Convulsed/Animals Tested,[4]; 5 mg/kg oral,6/10
same,Rate of Convulsion Inhibition (%),[4]; 5 mg/kg oral,40%
same,Animals Convulsed/Animals Tested,[4]; 10 mg/kg oral,5/10
same,Rate of Convulsion Inhibition (%),[4]; 10 mg/kg oral,50%
same,Animals Convulsed/Animals Tested,[4]; 15 mg/kg oral,2/10
same,Rate of Convulsion Inhibition (%),[4]; 15 mg/kg oral,80%
same,Animals Convulsed/Animals Tested,[4]; 20 mg/kg oral,0/10
same,Rate of Convulsion Inhibition (%),[4]; 20 mg/kg oral,100%
same,Inhibition of the tonic extension (in words),[4],inhibited the tonic extension dose-dependency
same,Increase in CCBF (Δ%),"[5]; 1 mg/kg i.v., 1 min",1.5 ± 1.5 Δ%
same,Increase in CCBF (Δ%),"[5]; 1 mg/kg i.v., 2 min",5.2 ± 1.6 Δ%
same,Increase in CCBF (Δ%),"[5]; 1 mg/kg i.v., 3 min",2.4 ± 1.2 Δ%
same,Increase in CCBF (Δ%),"[5]; 1 mg/kg i.v., 4 min",1.4 ± 1.4 Δ%
same,Increase in CCBF (Δ%),"[5]; 1 mg/kg i.v., 5 min",-1.0 ± 1.0 Δ%
same,Increase in CCBF (Δ%),"[5]; 3 mg/kg i.v., 1 min",7.1 ± 5.6 Δ%
same,Increase in CCBF (Δ%),"[5]; 3 mg/kg i.v., 2 min",9.8 ± 7.4 Δ%
same,Increase in CCBF (Δ%),"[5]; 3 mg/kg i.v., 3 min",4.6 ± 4.8 Δ%
same,Increase in CCBF (Δ%),"[5]; 3 mg/kg i.v., 4 min",-1.8 ± 4.3 Δ%
same,Increase in CCBF (Δ%),"[5]; 3 mg/kg i.v., 5 min",-5.9 ± 2.1 Δ%
same,Increase of CCBF (in words),[5],increased VBF and CCBF dose-dependently
"COC(=O)C1=C(C)NC(C)=C(C(=O)OCCN(C)Cc2ccccc2)C1c1cccc([N+](=O)[O-])c1 (centres unmarked) [nicardipine, reference compound]",Survival Time,[1]; 80 mg/kg oral,24.3 ± 1.0 s
CCCCC1=C(c2ccccc2)c2cc3c(cc2C1N1CCN(CCC)CC1)OCO3 (centres unmarked) [Compound 6b],LD50,"Measurement of LD50; oral, ddY male mice",608 mg/kg
same,Rate of Survival (%),[2]; [6],30%
same,Survived Animals/Tested Animals,[2]; [6],3/10
"CCCCC1=Cc2cc3c(cc2C1N1CCN(C)CC1)OCO3 (centres unmarked) [Compound 1c, Dihydrochloride of 1-(4-methylpiperazinyl)-2-n-butyl-5,6-methylenedioxyindene]",LD50,Measurement of LD50; po,368 mg/kg
same,Survival Time,[1]; 40 mg/kg oral,28.8 ± 0.6 s
same,Survival Time,[1]; 80 mg/kg oral,32.3 ± 0.6 s
same,Prolongation of survival time (in words),[1],significant prolongation of survival time dose-dependency
same,Rate of Survival (%),"[2]; mouse, in vivo",78%
same,Survived Animals/Tested Animals,"[2]; mouse, in vivo",7/9
same,Increase in VBF (Δ%),"[3]; 0.3 mg/kg i.v., 1 min",6.3 ± 6.3 Δ%
same,Increase in VBF (Δ%),"[3]; 0.3 mg/kg i.v., 2 min",19.7 ± 9.0 Δ%
same,Increase in VBF (Δ%),"[3]; 0.3 mg/kg i.v., 3 min",32.2 ± 15.8 Δ%
same,Increase in VBF (Δ%),"[3]; 0.3 mg/kg i.v., 4 min",26.5 ± 13.2 Δ%
same,Increase in VBF (Δ%),"[3]; 0.3 mg/kg i.v., 5 min",16.1 ± 7.9 Δ%
same,Increase in VBF (Δ%),"[3]; 0.3 mg/kg i.v., 10 min",12.5 ± 12.5 Δ%
same,Increase in VBF (Δ%),"[3]; 0.3 mg/kg i.v., 15 min",15.5 ± 11.3 Δ%
same,Increase in VBF (Δ%),"[3]; 1 mg/kg i.v., 1 min",9.6 ± 5.1 Δ%
same,Increase in VBF (Δ%),"[3]; 1 mg/kg i.v., 2 min",59.6 ± 33.3 Δ%
same,Increase in VBF (Δ%),"[3]; 1 mg/kg i.v., 3 min",74.5 ± 36.3 Δ%
same,Increase in VBF (Δ%),"[3]; 1 mg/kg i.v., 4 min",68.9 ± 39.3 Δ%
same,Increase in VBF (Δ%),"[3]; 1 mg/kg i.v., 5 min",39.2 ± 27.5 Δ%
same,Increase in VBF (Δ%),"[3]; 1 mg/kg i.v., 10 min",14.0 ± 8.5 Δ%
same,Increase in VBF (Δ%),"[3]; 1 mg/kg i.v., 15 min",11.7 ± 9.0 Δ%
same,Increase in VBF (Δ%),"[3]; 3 mg/kg i.v., 1 min",44.2 ± 16.3 Δ%
same,Increase in VBF (Δ%),"[3]; 3 mg/kg i.v., 2 min",154.7 ± 56.5 Δ%
same,Increase in VBF (Δ%),"[3]; 3 mg/kg i.v., 3 min",173.7 ± 61.6 Δ%
same,Increase in VBF (Δ%),"[3]; 3 mg/kg i.v., 4 min",143.6 ± 54.0 Δ%
same,Increase in VBF (Δ%),"[3]; 3 mg/kg i.v., 5 min",111.4 ± 49.6 Δ%
same,Increase in VBF (Δ%),"[3]; 3 mg/kg i.v., 10 min",65.8 ± 30.5 Δ%
same,Increase in VBF (Δ%),"[3]; 3 mg/kg i.v., 15 min",37.5 ± 18.4 Δ%
same,Increase of VBF (in words),[3],increased VBF and CCBF dose-dependently
same,Animals Convulsed/Animals Tested,[4]; 1 mg/kg oral,8/10
same,Rate of Convulsion Inhibition (%),[4]; 1 mg/kg oral,20%
same,Animals Convulsed/Animals Tested,[4]; 5 mg/kg oral,5/10
same,Rate of Convulsion Inhibition (%),[4]; 5 mg/kg oral,50%
same,Animals Convulsed/Animals Tested,[4]; 10 mg/kg oral,1/10
same,Rate of Convulsion Inhibition (%),[4]; 10 mg/kg oral,90%
same,Animals Convulsed/Animals Tested,[4]; 15 mg/kg oral,0/10
same,Rate of Convulsion Inhibition (%),[4]; 15 mg/kg oral,100%
same,Inhibition of the tonic extension (in words),[4],inhibited the tonic extension dose-dependency
same,Increase in CCBF (Δ%),"[5]; 0.3 mg/kg i.v., 1 min",2.4 ± 1.3 Δ%
same,Increase in CCBF (Δ%),"[5]; 0.3 mg/kg i.v., 2 min",4.5 ± 0.7 Δ%
same,Increase in CCBF (Δ%),"[5]; 0.3 mg/kg i.v., 3 min",4.5 ± 0.7 Δ%
same,Increase in CCBF (Δ%),"[5]; 0.3 mg/kg i.v., 4 min",4.5 ± 0.7 Δ%
same,Increase in CCBF (Δ%),"[5]; 0.3 mg/kg i.v., 5 min",0.8 ± 2.7 Δ%
same,Increase in CCBF (Δ%),"[5]; 0.3 mg/kg i.v., 10 min",0 ± 0 Δ%
same,Increase in CCBF (Δ%),"[5]; 0.3 mg/kg i.v., 15 min",2.2 ± 2.8 Δ%
same,Increase in CCBF (Δ%),"[5]; 1 mg/kg i.v., 1 min",5.2 ± 0.8 Δ%
same,Increase in CCBF (Δ%),"[5]; 1 mg/kg i.v., 2 min",11.9 ± 4.7 Δ%
same,Increase in CCBF (Δ%),"[5]; 1 mg/kg i.v., 3 min",13.9 ± 7.4 Δ%
same,Increase in CCBF (Δ%),"[5]; 1 mg/kg i.v., 4 min",12.8 ± 7.2 Δ%
same,Increase in CCBF (Δ%),"[5]; 1 mg/kg i.v., 5 min",6.4 ± 3.6 Δ%
same,Increase in CCBF (Δ%),"[5]; 1 mg/kg i.v., 10 min",1.1 ± 1.1 Δ%
same,Increase in CCBF (Δ%),"[5]; 1 mg/kg i.v., 15 min",3.6 ± 2.0 Δ%
same,Increase in CCBF (Δ%),"[5]; 3 mg/kg i.v., 1 min",9.5 ± 2.7 Δ%
same,Increase in CCBF (Δ%),"[5]; 3 mg/kg i.v., 2 min",19.0 ± 16.1 Δ%
same,Increase in CCBF (Δ%),"[5]; 3 mg/kg i.v., 3 min",14.1 ± 18.0 Δ%
same,Increase in CCBF (Δ%),"[5]; 3 mg/kg i.v., 4 min",12.7 ± 14.2 Δ%
same,Increase in CCBF (Δ%),"[5]; 3 mg/kg i.v., 5 min",9.3 ± 10.8 Δ%
same,Increase in CCBF (Δ%),"[5]; 3 mg/kg i.v., 10 min",6.1 ± 5.8 Δ%
same,Increase in CCBF (Δ%),"[5]; 3 mg/kg i.v., 15 min",4.9 ± 5.0 Δ%
same,Increase of CCBF (in words),[5],increased VBF and CCBF dose-dependently
